Paper PMC11503492, “Activity-Based DNA-Encoded Library Screening for Selective Inhibitors of Eukaryotic Translation” (ACS Central Science, 2024)

Test system: PCSK9[1:33]-GFP translation
Experiment: Microfluidic activity-based DEL screen in WG IVTT droplets, PCSK9[1:33]-GFP, hit k class by sequencing
Format: biochemical, wheat germ
Conditions: number of times hit structure observed on distinct beads, summed across PCSK9[1:33]-GFP screens; *** p < 0.001, NS not significant
Procedure: The validated PF846-inspired library was screened to discover novel translation inhibitors. DEL beads were encapsulated in microfluidic droplets of WG IVTT and irradiated with UV in flow to liberate DEL members into the droplets. The photodosed droplets were incubated and sorted based on fluorescence.[25] PCSK9[1:33]-GFP was chosen as a proof-of-concept target, and PCSK9-FS[1:33]-GFP was used as a counter screen target to identify nonselective compounds. PC-HygB were mixed with DEL beads and screened in the microfluidic device for inhibitors of translation. […] Droplet generation, bead introduction, and library and control bead hit rate were uniform during the screen (Figure 3, bottom).
Hit collection DNA tags from the PCSK9[1:33]-GFP and PCSK9-FS[1:33]-GFP screens were sequenced to deduce the structures of molecules that inhibited PCSK9[1:33]- or PCSK9-FS[1:33]-GFP translation. Hit structure k class, the number of times a given hit structure is observed on distinct beads,[31] was summed across screens and visualized as a heat map (Figure 4A). […] The combined hit sets for the two templates contained 121 unique hits with k ≥ 17 across the two screening campaigns. The most frequently observed cycle 1 starter BBs were 1 and 2, which share an 8-methylisoquinoline moiety, but differ in the vector for cycle 2 carboxylic acid connection, and 3, which contains an N-methylazaindole moiety. The most frequently identified cycle 2 tails included carboxylic acids 4–7. […] Substituted pyrazole 6 and pyridyl-benzimidazole 7 also appeared frequently with the aforementioned starters. There were 5 hits that appeared with high k class in both PCSK9[1:33]-GFP and PCSK9[1:33]-FS-GFP screening campaigns.
319 the droplet experiment to homogenize the bead suspension. Syringes were connected to
320 fluidic inputs with microbore Tygon tubing (0.01” x 0.03” IC × OD). Droplet generation oil
321 (OIL1) was 1% picosurf in HFE. Spacing (OIL2) and pinning (OIL3) oils were neat HFE.
322 Assay reagents were driven by displacement syringe pumps (Legato 100, KD Scientific,
323 Holliston, MA) through the circuit. OIL2 and OIL3 were initially flowed (22 µL/min and
324 12 µL/min, respectively) and hit and waste shunt tubing were clamped to backfill the
325 circuit. Once the incubator was filled with oil, the hit and waste tubing were unclamped
326 and back shunts were clamped. AQ1, AQ2, and OIL1 flows were initiated (960 nL/min,
327 640 nL/min, and 1200 nL/min, respectively) and held constant during the screen. Once
328 droplet generation equilibrated (∼10 min), the main shunt was clamped and droplets
329 started to fill the incubator. When droplets filled the incubator and entered the sorting
330 region, data acquisition and screening was initiated.
331 The custom confocal LIF detection setup and LabView code were previously described.S3
332 Briefly, photon counting PMTs (H7828, Hamamatsu, Middlesex, NJ) were used to detect
333 droplet fluorescence emission using a custom two-channel (520 and 570 nm) confocal mi-
334 croscope with laser excitation (488 nm, 20 mW, OBIS-488 20LS, Coherent Inc., Santa Clara,
335 CA). A data acquisition board (DAQ, NI, USB-6341, National Instruments) was used to
336 digitize PMT signal, which was binned into counts, and in-house LabView code was used
337 to control acquisition and execute droplet sorting decisions. Signal was smoothed in real-
338 time using median-filter smoothing (width = 3). Droplets were identified by the 570 nm
339 channel signal and the maximum signal in the 520 nm channel (max = countsn-1 when
340 countsn <countsn-1) was set as the droplet peak value. A roaming sort threshold was
342 the 520 nm channel. The threshold was calculated as µ - 5σ, where µ andσ were the mean
343 and standard deviation of the previous 300 droplets’ fluorescence values, respectively. Hit
344 droplets were not included in the calculation of droplet mean and standard deviation. A […]

Row | Structure (SMILES) | k class PCSK9
1 | Cc1cccc2ccnc(N(C(=O)[C@H]3CCCN(C(=O)c4cccc5c(C#N)c[nH]c45)C3)[C@@H]3CCCNC3)c12 [Compound 8] | 47
2 | Cc1cccc2ccnc(N(C(=O)C3CCN(C(=O)c4cccc5c(C#N)c[nH]c45)CC3)[C@@H]3CCCNC3)c12 [Compound 9] | 28
